Results published in patent publication EP4512427A1, “ANTIBODY-DRUG CONJUGATES BASED ON MOLECULAR GLUE DEGRADERS AND USES THEREOF” (Mablink Bioscience, priority 2023, dated 2025).

Experiments:
CycK = CycK protein quantification by Western Blot; assay type: cell-based, human; details: JIMT-1 cells, 1µM, 2h
Method: 1×10^6 JIMT-1 cells were plated in 3mL of DMEM/FBS 90:10 (v/v) in 6-well plates and incubated overnight. Cells were treated with the compound 2384 of the invention with or without the proteasome inhibitor MG-132 (MedChemExpress, Cat HY-13259) for 2h. Cells were harvested, and protein were extracted using complete RIPA buffer (RIPA buffer, 1 mM DTT, 1M NaF, 100 mM sodium orthovanadate, phosphatase inhibitor buffer and protease inhibitors) for 1 hour on ice. Lysate were centrifuged 15min at 12 000g at 4°C. and proteins were mixed with 4x Laemmli Sample Buffer (Bio-Rad), heated at 95 °C for 5 mins and separated by SDS PAGE (PROTEAN TGX Stain-Free Gels, Bio-Rad). Proteins were then transferred onto PVDF membrane (iBlot®2 PVDF stacks, Invitrogen) using the iBlot2 device (Invitrogen) and blocked with TBS buffer (Intercept® Blocking Buffer, LI-COR Biosciences). Primary antibodies were incubated overnight at 4°C and secondary antibodies (IRDye Infrared Dyes from LI-COR Biosciences) 1 hour at room temperature. Used primary antibody were: anti-CycK (cat#A301-939A, Bethyl Laboratories, dil. 1:1000) and anti-β-actin (cat#A5441, Sigma-Aldrich, dil. 1:5000). Membranes were scanned using a c500 Imaging System (Azure Biosystems) and densitometric quantification were performed using imaged software. Protein levels were normalized against β-actin.

BCRP = target: T1, BCRP (Homo sapiens, UniProt Q9UNQ0); test: BCRP efflux substrate assay in MDCK-BCRP; assay type: in vitro ADME; details: for efflux ratio at 60 min, 5 µM / Papp A→B at 60 min, 5 µM / Papp B→A at 60 min, 5 µM: dog, pH 7.4, MDCK-BCRP; for efflux ratio at 60 min, 5 µM: read-out: Efflux ratio B/A; for Papp A→B at 60 min, 5 µM: read-out: Papp A (donor) to B (acceptor); for Papp B→A at 60 min, 5 µM: read-out: Papp B (acceptor) to A (donor)
T1 construct: host or cells: MDCK-BCRP (Preadyport)
T1 sequence (Q9UNQ0 1-655): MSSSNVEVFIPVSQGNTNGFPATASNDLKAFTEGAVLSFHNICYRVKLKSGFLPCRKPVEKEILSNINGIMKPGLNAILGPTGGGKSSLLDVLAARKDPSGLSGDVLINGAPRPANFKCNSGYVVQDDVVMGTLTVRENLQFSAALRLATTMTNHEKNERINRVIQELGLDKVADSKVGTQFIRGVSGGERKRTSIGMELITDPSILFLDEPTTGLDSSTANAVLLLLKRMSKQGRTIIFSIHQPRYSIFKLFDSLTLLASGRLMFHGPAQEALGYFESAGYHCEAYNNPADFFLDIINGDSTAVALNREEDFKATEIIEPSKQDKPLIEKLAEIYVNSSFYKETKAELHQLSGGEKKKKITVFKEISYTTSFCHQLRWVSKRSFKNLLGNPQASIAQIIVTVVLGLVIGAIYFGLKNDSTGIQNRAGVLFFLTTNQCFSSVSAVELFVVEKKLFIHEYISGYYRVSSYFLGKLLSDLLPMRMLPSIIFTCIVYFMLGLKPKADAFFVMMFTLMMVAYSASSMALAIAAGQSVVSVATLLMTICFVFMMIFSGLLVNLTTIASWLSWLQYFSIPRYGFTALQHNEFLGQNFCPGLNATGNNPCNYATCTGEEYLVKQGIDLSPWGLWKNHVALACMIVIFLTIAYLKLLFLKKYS
Method: (§1) MDR1 and BCRP efflux substrate assays were conducted in MDCK-MDR1 and MDCK-BCRP in vitro models (Preadyport™, Solvo Biotech) at Symeres (Nederland). Compound of the invention (donor well concentration of 5µM) were incubated in cell monolayer 24-transwell Preadyport system, using Preadyport recommended pH 7.4 assay buffer (donor and receiver wells). After 60 min of incubation (no shaking), samples are collected and suspended into triple volume of 66% cold acetonitrile. Samples are stored at -20°C until thawed, centrifuged and analyzed by LC-MS. Quinidine was used a positive control for the MDR1 assay, and prazosin was used as a positive control for the BCRP assay. Exatecan was used as a control, known not to be an MDR1 substrate. Residual DMSO content from compounds stock solutions was below 1% (v/v). The assay was performed in duplicate. The quantification of test compounds in donor or receptor compartment is conducted using relative LC/MS peak areas (samples of initial incubation solutions are used as a single point calibrator), without any spiked standard samples. The data is used for estimating apparent permeability (Papp) and calculation of efflux ratio.

MDR1 = target: T2, MDR1 (Homo sapiens, UniProt P08183); test: MDR1 efflux substrate assay in MDCK-MDR1; assay type: in vitro ADME; details: for Papp A→B at 60 min, 5 µM / Papp B→A at 60 min, 5 µM: MDCK-MDR1, 5µM, pH 7.4; for Papp A→B at 60 min, 5 µM: read-out: Papp A (donor) to B (acceptor); for Papp B→A at 60 min, 5 µM: read-out: Papp B (acceptor) to A (donor)
T2 construct: host or cells: MDCK-MDR1 (Preadyport)
T2 sequence (P08183 whole entry): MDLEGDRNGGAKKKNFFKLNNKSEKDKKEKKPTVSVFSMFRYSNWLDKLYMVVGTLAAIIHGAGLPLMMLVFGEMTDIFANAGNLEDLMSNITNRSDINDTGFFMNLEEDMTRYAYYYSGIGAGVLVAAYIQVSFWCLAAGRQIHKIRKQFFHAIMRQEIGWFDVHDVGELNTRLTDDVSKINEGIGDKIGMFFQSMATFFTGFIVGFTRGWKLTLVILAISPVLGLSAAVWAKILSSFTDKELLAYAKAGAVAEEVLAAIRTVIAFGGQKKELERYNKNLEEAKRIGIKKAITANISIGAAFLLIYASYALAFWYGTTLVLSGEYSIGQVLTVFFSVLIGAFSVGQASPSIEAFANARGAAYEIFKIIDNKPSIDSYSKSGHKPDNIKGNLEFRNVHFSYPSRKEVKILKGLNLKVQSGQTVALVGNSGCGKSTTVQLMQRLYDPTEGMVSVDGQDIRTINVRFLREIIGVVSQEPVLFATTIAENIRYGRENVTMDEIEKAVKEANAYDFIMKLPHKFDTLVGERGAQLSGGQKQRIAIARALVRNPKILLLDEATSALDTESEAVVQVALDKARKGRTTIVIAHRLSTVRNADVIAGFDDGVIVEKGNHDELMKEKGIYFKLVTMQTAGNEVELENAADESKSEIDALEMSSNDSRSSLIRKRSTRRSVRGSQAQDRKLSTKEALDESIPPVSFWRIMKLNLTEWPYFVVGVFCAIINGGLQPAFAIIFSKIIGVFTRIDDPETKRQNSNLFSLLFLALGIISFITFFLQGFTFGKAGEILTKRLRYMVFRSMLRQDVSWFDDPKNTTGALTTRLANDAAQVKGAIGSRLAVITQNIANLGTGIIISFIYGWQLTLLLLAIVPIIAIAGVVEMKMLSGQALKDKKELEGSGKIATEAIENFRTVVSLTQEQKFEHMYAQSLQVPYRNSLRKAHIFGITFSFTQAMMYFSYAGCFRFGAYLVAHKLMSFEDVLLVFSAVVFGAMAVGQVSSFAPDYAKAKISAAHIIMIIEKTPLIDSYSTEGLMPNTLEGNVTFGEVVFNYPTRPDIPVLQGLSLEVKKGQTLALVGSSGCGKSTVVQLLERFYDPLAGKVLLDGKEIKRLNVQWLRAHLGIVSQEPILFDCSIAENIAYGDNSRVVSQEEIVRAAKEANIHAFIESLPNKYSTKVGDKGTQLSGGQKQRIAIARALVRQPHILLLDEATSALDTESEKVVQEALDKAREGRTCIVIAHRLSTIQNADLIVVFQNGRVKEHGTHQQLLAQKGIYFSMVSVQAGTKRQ
Method: as §1

in vitro = details: PAMPA, pH 7.4
Method: Stock solutions of compounds of the invention were prepared in dimethyl sulfoxide (DMSO) to a final concentration of 10 mM. Each stock solution was diluted to 50 µM in pH 7.4 Prisma HT buffer (pION) in the presence of 10% MeOH (v/v). 200 µL were added to each well of the donor plate in quintuplicate. […] The acceptor filter plate was carefully placed on top of the donor plate to form a "sandwich." The sandwich was incubated at 25°C for 5 h, at 300 rpm. UV-vis spectra of the solutions in the blank, reference, acceptor, and donor plates were measured using a Tecan Infinite 200 PRO M Nano Plus microplate reader.

BXPC3 = test: In vitro cytotoxicity assay (MTT); assay type: cell-based; details: Homo sapiens, BXPC-3, 144 h, 6 days incubation
Method: (§2) In vitro cytotoxicity of compounds of the disclosure was assessed on several cancerous human cell lines. Cells were plated in 96-well plates at an appropriate density depending on the cell line (between 1000 and 10 000 cells/well in 100µL of appropriate culture media) and incubated at 37°C for 24 hours. Serial dilutions of the tested compound previously dissolved in culture media (50µL) were added, and incubation was carried at 37°C out for 6 days. MTT (5mg/mL in PBS, 20µL, Sigma-Aldrich) was added into the wells, and incubation was continued for 1 to 4 hours at 37°C. Culture media was then carefully removed, and well content was homogeneously dissolved with acidified isopropanol. Absorbance values were measured on a microplate reader using a wavelength of 570 nm (with a reference wavelength of 690 nm). The IC50 concentration values compared to untreated control cells were determined using inhibition dose response curve fitting (GraphPad Prism 9). Exatecan mesylate (cat#HY-13631A) and CR8 (CAS# 294646-77-8; cat#HY-18340) were purchased from MedChemExpress (China).

HT-29 = test: In vitro cytotoxicity assay (MTT); assay type: cell-based; details: Homo sapiens, 144 h, 6 days incubation
Method: as §2

KB-1 = test: In vitro cytotoxicity assay (MTT); assay type: cell-based; details: Homo sapiens, KB16, 144 h, 6 days incubation
Method: as §2

MCF-7 = test: In vitro cytotoxicity assay (MTT); assay type: cell-based; details: Homo sapiens, MCF7, 144 h, 6 days incubation
Method: as §2

MDA-MB-231 = test: In vitro cytotoxicity assay (MTT); assay type: cell-based, human; details: Homo sapiens, 6 days incubation
Method: as §2

SKBR-3 = test: In vitro cytotoxicity assay (MTT); assay type: cell-based, human; details: Homo sapiens, SK-BR-3, 144 h, 6 days incubation
Method: as §2

MDA-MB-453 = test: In vitro cytotoxicity assay (MTT); assay type: cell-based, human; details: Homo sapiens, 6 days incubation
Method: as §2

BT-474 = test: In vitro cytotoxicity assay (MTT); assay type: cell-based, human; details: Homo sapiens, BT-474, 144 h
Method: as §2

NCI-N87 = test: In vitro cytotoxicity assay (MTT); assay type: cell-based, human; details: Homo sapiens, 6 days incubation
Method: as §2

JIMT-1 = test: In vitro cytotoxicity assay (MTT); assay type: cell-based, human; details: Homo sapiens, 144 h, 6 days incubation
Method: as §2

OE-19 = test: In vitro cytotoxicity assay (MTT); assay type: cell-based; details: Homo sapiens, OE19, 144 h, 6 days incubation
Method: as §2

A549 = test: In vitro cytotoxicity assay (MTT); assay type: cell-based; details: Homo sapiens, 144 h, 6 days incubation
Method: as §2

HCT-116 = test: In vitro cytotoxicity assay (MTT); assay type: cell-based; details: Homo sapiens, 144 h, 6 days incubation
Method: as §2

Caco-2 = test: In vitro cytotoxicity assay (MTT); assay type: cell-based; details: Homo sapiens, 144 h, 6 days incubation
Method: as §2

Structure (SMILES) | efflux ratio at 60 min, 5 µM (BCRP) | Papp A→B at 60 min, 5 µM (BCRP) | Papp B→A at 60 min, 5 µM (BCRP) | Papp A→B at 60 min, 5 µM (MDR1; dog) | Papp B→A at 60 min, 5 µM (MDR1; dog) | Papp at 5 h, 50 µM (in vitro) | IC50 (BXPC3) | IC50 (HT-29) | IC50 (KB-1) | IC50 (MCF-7) | IC50 (MDA-MB-231; MDA-MB-231, 144 h) | IC50 (SKBR-3) | IC50 (MDA-MB-453; MDA-MB-453, 144 h) | IC50 (BT-474; BT-474, 6 days incubation, MTT) | IC50 (NCI-N87; NCI-N87, 144 h) | IC50 (JIMT-1) | IC50 (OE-19) | IC50 (A549) | IC50 (HCT-116) | IC50 (Caco-2) | other results
CN(C)C/C=C/C(=O)Nc1ccc(C(=O)N2CCC[C@@H](Nc3ncc(Cl)c(-c4c[nH]c5ccccc45)n3)C2)cc1 [THZ-531, reference compound] | – | – | – | – | – | – | – | – | – | – | – | – | – | – | – | – | – | – | – | – | CycK protein content (CycK): no impact on CycK protein content
NC[C@H]1CC[C@H](Nc2nc(NCc3ccc(-c4ccccn4)cc3)n3ncc(Br)c3n2)CC1 [Compound 2636] | 6.21 | 3 ×10⁻⁶ cm/s | 18.6 ×10⁻⁶ cm/s | < 12.9 ×10⁻⁶ cm/s | 30.8 ×10⁻⁶ cm/s | 67 ×10⁻⁶ cm/s | 4.68 nM | 1.28 nM | 8.1 nM | 33.1 nM | 1.46 nM | 0.17 nM | 1.97 nM | 3.68 nM | 2.46 nM | 0.12 nM | – | – | – | – | –
CC(C)c1cnn2c(NCc3ccc(-c4ccccn4)cc3)nc(NC3CCNCC3)nc12 [Compound 2428] | – | – | – | – | – | – | – | 0.83 nM | – | 9.12 nM | 2.31 nM | 1.94 nM | 3.11 nM | 3.73 nM | 4.5 nM | 0.92 nM | 7.84 nM | 2.22 nM | 5.31 nM | 24.2 nM | –
Brc1cnn2c(NCc3ccc(-c4ccccn4)cc3)nc(NC3CCNCC3)nc12 [Compound 2388, 8-bromo-N2-(piperidin-4-yl)-N4-(4-(pyridin-2-yl)benzyl)pyrazolo[1,5-a][1,3,5]triazine-2,4-diamine] | – | – | – | – | – | – | 1.97 nM | 0.23 nM | – | 5.4 nM | 0.76 nM | 1.68 nM | 1.27 nM | 1.64 nM | 1.4 nM | 0.64 nM | 3.77 nM | 0.65 nM | 1.66 nM | 4.46 nM | –
CN(CCN)c1nc(NCc2ccc(-c3ccccn3)cc2)n2ncc(Br)c2n1 [Compound 2600] | 2.1 | 22.4 ×10⁻⁶ cm/s | 47.1 ×10⁻⁶ cm/s | 2.05 ×10⁻⁶ cm/s | 59.3 ×10⁻⁶ cm/s | 90 ×10⁻⁶ cm/s | 1.16 nM | 0.28 nM | 1.48 nM | 12.2 nM | 0.29 nM | 1.69 nM | 1.17 nM | 1.18 nM | 1.32 nM | 0.19 nM | – | – | – | – | BCRP efflux potential (BCRP; in words): low level; efflux ratio at 60 min, 5 µM (MDR1; dog, MDCK-MDR1, pH 7.4, read-out: Efflux ratio B/A): 28.9; MDR1 efflux potential (MDR1; in words): low level
N[C@H]1CC[C@@H](Nc2nc(NCc3ccc(-c4ccccn4)cc3)n3ncc(Br)c3n2)CC1 [Compound 2568] | 23.6 | 2.52 ×10⁻⁶ cm/s | 59.5 ×10⁻⁶ cm/s | < 0.54 ×10⁻⁶ cm/s | 40.5 ×10⁻⁶ cm/s | 88 ×10⁻⁶ cm/s | 4.86 nM | 0.46 nM | 4.95 nM | 11.6 nM | – | 4.36 nM | – | – | – | 0.62 nM | – | – | – | – | IC50 (MDA-MB-231; 144 h): 0.98 nM; IC50 (MDA-MB-453; 144 h): 1.67 nM; IC50 (BT-474): 1.75 nM; IC50 (NCI-N87; 144 h): 2.22 nM
CC(C)c1cnn2c(NCc3ccc(-c4ccccn4)cc3)nc(N[C@H]3CC[C@H](N)CC3)nc12 [Compound 2420, N2-((1r,4r)-4-aminocyclohexyl)-8-isopropyl-N4-(4-(pyridin-2-yl)benzyl)pyrazolo[1,5-a][1,3,5]triazine-2,4-diamine] | – | – | – | – | – | – | – | 1.74 nM | – | 7.78 nM | 0.7 nM | 3.25 nM | 2.73 nM | 3.41 nM | 4.93 nM | 0.61 nM | 6.91 nM | 1.99 nM | 4.4 nM | 56.1 nM | –
